Key:
M14 = format: cell-based; settings: M14, Melanoma
[1] = DPPH radical scavenging assay; settings: 25 µM test compound, 0.1 mM DPPH, acetonitrile, 30 min
Protocol: A stable free radical DPPH (2,2-Diphenyl-1-picrylhydrazyl) assay was employed to test the antioxidant activity of all the synthesized compounds. Concisely, 25 µM of the test compounds were dissolved in acetonitrile and combined with 0.1 mM of DPPH (in acetonitrile) in a 1:2 ratio (80 µL and 160 µL). Then, the mixture was left undisturbed in the dark for 30 min at room temperature. After 30 min, the absorbance of the solutions was instantly measured at 517 nm using a Varioskan Multiplate Reader (Thermo Fisher Scientific, Mumbai, India). Ascorbic acid (in acetonitrile) was used as the positive control, and andrographolide and isoandrogapholide (in acetonitrile) were used as the standards. The following equation was used to determine the DPPH radical scavenging activity:% Radical scavenging activity = (Ac − As)/Ac × 100 where Ac = the absorbance of the blank (DPPH solution), and As = the absorbance of the test samples

SR = settings: for GI50 / Total growth inhibition (TGI): Leukemia; for CC50: read-out: 50% lethal concentration (LC50), Leukemia
A549/ATCC = settings: for Total growth inhibition (TGI): Non-Small Cell Lung; for GI50: Non-Small-Cell Lung; for CC50: read-out: 50% lethal concentration (LC50), Non-Small Cell Lung
EKVX = settings: for Total growth inhibition (TGI): Non-Small Cell Lung; for GI50: Non-Small-Cell Lung; for CC50: read-out: 50% lethal concentration (LC50), Non-Small Cell Lung
HOP-62 = settings: for Total growth inhibition (TGI) / CC50: HOP-62, Non-Small Cell Lung; for GI50: HOP-62, Non-Small-Cell Lung; for CC50: read-out: 50% lethal concentration (LC50)
NCI-H226 = settings: for Total growth inhibition (TGI) / CC50: NCI-H226, Non-Small Cell Lung; for GI50: NCI-H226, Non-Small-Cell Lung; for CC50: read-out: 50% lethal concentration (LC50)
NCI-H460 = settings: for Total growth inhibition (TGI) / CC50: NCI-H460, Non-Small Cell Lung; for GI50: NCI-H460, Non-Small-Cell Lung; for CC50: read-out: 50% lethal concentration (LC50)
HT29 = settings: HT29, Colon; for CC50: read-out: 50% lethal concentration (LC50)
KM12 = settings: KM12, Colon
SW-620 = settings: SW-620, Colon; for CC50: read-out: 50% lethal concentration (LC50)
SF-539 = settings: SF-539, CNS; for CC50: read-out: 50% lethal concentration (LC50)
U251 = settings: U251, CNS
LOX IMVI = settings: for GI50 / Total growth inhibition (TGI): Melanoma; for CC50: read-out: 50% lethal concentration (LC50), Melanoma
MALME-3M = settings: for GI50 / Total growth inhibition (TGI): Melanoma
SK-MEL-2 = settings: SK-MEL-2, Melanoma
SK-MEL-28 = settings: SK-MEL-28, Melanoma; for CC50: read-out: 50% lethal concentration (LC50)
OVCAR-3 = settings: OVCAR-3, Ovarian; for CC50: read-out: 50% lethal concentration (LC50)
OVCAR-8 = settings: OVCAR-8, Ovarian; for CC50: read-out: 50% lethal concentration (LC50)
NCI/ADR-RES = settings: Ovarian
A498 = settings: A498, Renal; for CC50: read-out: 50% lethal concentration (LC50)
CAKI-1 = settings: CAKI-1, Renal
RXF 393 = settings: RXF 393, Renal; for CC50: read-out: 50% lethal concentration (LC50)
SN12C = settings: for GI50 / Total growth inhibition (TGI): Renal; for CC50: read-out: 50% lethal concentration (LC50), Renal
MCF7 = settings: MCF7, Breast; for CC50: read-out: 50% lethal concentration (LC50)
MDA-MB-231 = settings: for GI50: MDA-MB-231, Breast; for Total growth inhibition (TGI) / CC50: MDA-MB-231/ATCC, Breast; for CC50: read-out: 50% lethal concentration (LC50)
HS 578T = settings: for GI50 / Total growth inhibition (TGI): Breast; for CC50: read-out: 50% lethal concentration (LC50), Breast
MDA-MB-468 = settings: MDA-MB-468, Breast; for CC50: read-out: 50% lethal concentration (LC50)
[2] = read-out: 50% lethal concentration (LC50)

C=C1CCC2C3(C)COC(c4cn(-c5ccccc5)nc4-c4ccc(Br)cc4)OC3CCC2(C)C1CC=C1C(=O)OCC1O (stereo not shown) [1h]
GI50 (M14): 1.71 µM
Total growth inhibition (TGI) (M14): 3.55 µM
% DPPH radical scavenging activity [1]: 57.51%
GI50 (SR): 1.69 µM
Total growth inhibition (TGI) (SR): 8.13 µM
CC50 (SR): > 100 µM
Total growth inhibition (TGI) (A549/ATCC): 51.6 µM
GI50 (A549/ATCC): 3.1 µM
CC50 (A549/ATCC): > 100 µM
Total growth inhibition (TGI) (EKVX): 5.35 µM
GI50 (EKVX): 2.21 µM
CC50 (EKVX): > 100 µM
Total growth inhibition (TGI) (HOP-62): 3.83 µM
GI50 (HOP-62): 1.8 µM
CC50 (HOP-62): 8.12 µM
Total growth inhibition (TGI) (NCI-H226): 2.8 µM
GI50 (NCI-H226): 1.36 µM
CC50 (NCI-H226): 5.77 µM
Total growth inhibition (TGI) (NCI-H460): 3.34 µM
GI50 (NCI-H460): 1.59 µM
CC50 (NCI-H460): 7 µM
GI50 (HT29): 2.16 µM
Total growth inhibition (TGI) (HT29): 6.51 µM
CC50 (HT29): > 100 µM
GI50 (KM12): 1.68 µM
Total growth inhibition (TGI) (KM12): 3.68 µM
Total growth inhibition (TGI) (SW-620): > 100 µM
CC50 (SW-620): > 100 µM
GI50 (SF-539): 1.76 µM
Total growth inhibition (TGI) (SF-539): 3.18 µM
CC50 (SF-539): 5.73 µM
GI50 (U251): 2.11 µM
Total growth inhibition (TGI) (U251): 2.89 µM
GI50 (LOX IMVI): 1.55 µM
Total growth inhibition (TGI) (LOX IMVI): 2.9 µM
CC50 (LOX IMVI): 5.41 µM
GI50 (MALME-3M): 1.6 µM
Total growth inhibition (TGI) (MALME-3M): 3.11 µM
GI50 (SK-MEL-2): 1.76 µM
Total growth inhibition (TGI) (SK-MEL-2): 3.18 µM
GI50 (SK-MEL-28): 1.73 µM
Total growth inhibition (TGI) (SK-MEL-28): 3.3 µM
CC50 (SK-MEL-28): 6.3 µM
GI50 (OVCAR-3): 1.52 µM
Total growth inhibition (TGI) (OVCAR-3): 3.32 µM
CC50 (OVCAR-3): 7.25 µM
GI50 (OVCAR-8): 1.55 µM
Total growth inhibition (TGI) (OVCAR-8): 3.4 µM
CC50 (OVCAR-8): 7.45 µM
GI50 (NCI/ADR-RES): 1.83 µM
Total growth inhibition (TGI) (NCI/ADR-RES): 4.19 µM
GI50 (A498): 4.35 µM
Total growth inhibition (TGI) (A498): 1.66 µM
CC50 (A498): 53.6 µM
GI50 (CAKI-1): 1.59 µM
Total growth inhibition (TGI) (CAKI-1): 3.49 µM
CC50 (CAKI-1; [2]): 7.69 µM
GI50 (RXF 393): 1.71 µM
Total growth inhibition (TGI) (RXF 393): 3.23 µM
CC50 (RXF 393): 6.11 µM
GI50 (SN12C): 1.51 µM
Total growth inhibition (TGI) (SN12C): 3.37 µM
CC50 (SN12C): 7.48 µM
GI50 (MCF7): 1.49 µM
Total growth inhibition (TGI) (MCF7): 4.81 µM
CC50 (MCF7): 72 µM
GI50 (MDA-MB-231): 1.59 µM
Total growth inhibition (TGI) (MDA-MB-231): 3.14 µM
CC50 (MDA-MB-231): 6.19 µM
GI50 (HS 578T): 1.52 µM
Total growth inhibition (TGI) (HS 578T): 3.01 µM
CC50 (HS 578T): 5.94 µM
GI50 (MDA-MB-468): 1.93 µM
Total growth inhibition (TGI) (MDA-MB-468): 3.47 µM
CC50 (MDA-MB-468): 6.23 µM

C=C1CCC2C3(C)COC(c4cn(-c5ccccc5)nc4-c4ccccc4)OC3CCC2(C)C1CC=C1C(=O)OCC1O (stereo not shown) [1a]
GI50 (M14): 1.81 µM
LC50 (50% lethal concentration) (M14): 7.23 µM
Total growth inhibition (TGI) (M14): 3.62 µM
% DPPH radical scavenging activity [1]: 58.66%
GI50 (SR): 3.79 µM
Total growth inhibition (TGI) (SR): > 100 µM
CC50 (SR): > 100 µM
Total growth inhibition (TGI) (A549/ATCC): 7.11 µM
GI50 (A549/ATCC): 2.49 µM
CC50 (A549/ATCC): > 100 µM
Total growth inhibition (TGI) (EKVX): 4.66 µM
GI50 (EKVX): 2.07 µM
CC50 (EKVX): > 100 µM
Total growth inhibition (TGI) (HOP-62): 3.84 µM
GI50 (HOP-62): 1.87 µM
CC50 (HOP-62): 7.89 µM
Total growth inhibition (TGI) (NCI-H226): 4.31 µM
GI50 (NCI-H226): 1.95 µM
CC50 (NCI-H226): 9.55 µM
Total growth inhibition (TGI) (NCI-H460): 3.35 µM
GI50 (NCI-H460): 1.66 µM
CC50 (NCI-H460): 6.74 µM
GI50 (HT29): 2.37 µM
Total growth inhibition (TGI) (HT29): 6.77 µM
CC50 (HT29): > 100 µM
GI50 (KM12): 2.06 µM
Total growth inhibition (TGI) (KM12): 4.31 µM
GI50 (SW-620): 1.73 µM
Total growth inhibition (TGI) (SW-620): 3.68 µM
CC50 (SW-620): 7.82 µM
GI50 (SF-539): 1.84 µM
Total growth inhibition (TGI) (SF-539): 3.26 µM
CC50 (SF-539): 5.77 µM
GI50 (U251): 1.84 µM
Total growth inhibition (TGI) (U251): 3.71 µM
CC50 (U251; [2]): 7.48 µM
GI50 (LOX IMVI): 1.54 µM
Total growth inhibition (TGI) (LOX IMVI): 3 µM
CC50 (LOX IMVI): 5.85 µM
GI50 (MALME-3M): 1.73 µM
Total growth inhibition (TGI) (MALME-3M): 3.18 µM
CC50 (MALME-3M; read-out: 50% lethal concentration (LC50), Melanoma): 5.88 µM
GI50 (SK-MEL-2): 1.74 µM
Total growth inhibition (TGI) (SK-MEL-2): 3.54 µM
CC50 (SK-MEL-2; [2]): 7.2 µM
GI50 (SK-MEL-28): 1.77 µM
Total growth inhibition (TGI) (SK-MEL-28): 3.38 µM
CC50 (SK-MEL-28): 6.45 µM
GI50 (OVCAR-3): 1.82 µM
Total growth inhibition (TGI) (OVCAR-3): 3.35 µM
CC50 (OVCAR-3): 6.16 µM
GI50 (OVCAR-8): 1.81 µM
Total growth inhibition (TGI) (OVCAR-8): 4.02 µM
CC50 (OVCAR-8): > 100 µM
GI50 (NCI/ADR-RES): 4.75 µM
Total growth inhibition (TGI) (NCI/ADR-RES): 5.31 µM
GI50 (A498): 2.34 µM
Total growth inhibition (TGI) (A498): 6.47 µM
CC50 (A498): 27.7 µM
GI50 (CAKI-1): 1.86 µM
Total growth inhibition (TGI) (CAKI-1): 4.81 µM
GI50 (RXF 393): 1.4 µM
Total growth inhibition (TGI) (RXF 393): 2.84 µM
CC50 (RXF 393): 5.76 µM
GI50 (SN12C): 1.87 µM
Total growth inhibition (TGI) (SN12C): 3.96 µM
CC50 (SN12C): 8.37 µM
GI50 (MCF7): 2 µM
Total growth inhibition (TGI) (MCF7): 9.09 µM
CC50 (MCF7): > 100 µM
GI50 (MDA-MB-231): 1.72 µM
Total growth inhibition (TGI) (MDA-MB-231): 3.25 µM
CC50 (MDA-MB-231): 6.15 µM
GI50 (HS 578T): 2.31 µM
Total growth inhibition (TGI) (HS 578T): 6.54 µM
CC50 (HS 578T): > 100 µM
GI50 (MDA-MB-468): 1.69 µM
Total growth inhibition (TGI) (MDA-MB-468): 3.34 µM
CC50 (MDA-MB-468): 6.58 µM
